Assay results taken from PubChem BioAssay AID328 (DTP/NCI, 2004).
Where “and” joins values, the source holds several entries; their conditions need not be identical. Equal values may be shown once. Inconclusive results and toxic doses are left out.

System: BDF1 mice, P388 leukemia ip, median survival T/C
Test: NCI In Vivo Anticancer Drug Screen. Data for tumor model P388 Leukemia (intraperitoneal) in B6D2F1 (BDF1) mice
Settings: endpoint: median survival time, higher = longer survival
How it was run: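 Vehicle-dosed animals serve as the reference; survival of compound-dosed, tumour-implanted mice is divided by it.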

[1] = dose: 50.0 mg/kg/injection, schedule: Q04DX003 (ip), vehicle: saline with Tween-80
[2] = dose: 100.0 mg/kg/injection, schedule: Q04DX003 (ip), vehicle: saline with Tween-80
[3] = dose: 200.0 mg/kg/injection, schedule: Q04DX003 (ip), vehicle: saline with Tween-80
[4] = dose: 12.5 mg/kg/injection, schedule: Q01DX009 (ip), vehicle: saline
[5] = dose: 50.0 mg/kg/injection, schedule: Q01DX009 (ip), vehicle: saline
[6] = dose: 50.0 mg/kg/injection, schedule: Q01DX009 (ip), vehicle: Klucel (hydroxypropylcellulose) (HPC)
[7] = dose: 50.0 mg/kg/injection, schedule: Q01DX009 (ip), vehicle: saline with Tween-80
[8] = dose: 100.0 mg/kg/injection, schedule: Q01DX009 (ip), vehicle: saline with Tween-80
[9] = dose: 200.0 mg/kg/injection, schedule: Q01DX009 (ip), vehicle: saline with Tween-80
[10] = dose: 100.0 mg/kg/injection, schedule: Q01DX009 (ip), vehicle: Klucel (hydroxypropylcellulose) (HPC)
[11] = dose: 200.0 mg/kg/injection, schedule: Q01DX009 (ip), vehicle: Klucel (hydroxypropylcellulose) (HPC)
[12] = dose: 100.0 mg/kg/injection, schedule: Q04DX003 (ip), vehicle: Klucel (hydroxypropylcellulose) (HPC)
[13] = dose: 200.0 mg/kg/injection, schedule: Q04DX003 (ip), vehicle: Klucel (hydroxypropylcellulose) (HPC)
[14] = dose: 400.0 mg/kg/injection, schedule: Q01DX009 (ip), vehicle: Klucel (hydroxypropylcellulose) (HPC)
[15] = dose: 400.0 mg/kg/injection, schedule: Q04DX003 (ip), vehicle: Klucel (hydroxypropylcellulose) (HPC)

Compound: Cc1ccc(/C(CN2CCOCC2)=N\O)cc1
- T/C (dose: 50.0 mg/kg/injection, schedule: Q01DX001 (ip), vehicle: saline sonified): 105 % of control
- T/C (dose: 100.0 mg/kg/injection, schedule: Q01DX001 (ip), vehicle: saline sonified): 105 % of control
- T/C (dose: 200.0 mg/kg/injection, schedule: Q01DX001 (ip), vehicle: saline sonified): 105 % of control

Compound: CCN(C(C)(C)C(SSSC(c1ccc(Cl)cc1)C(C)(C)N(CC)S(C)(=O)=O)c1ccc(Cl)cc1)S(C)(=O)=O (centres undefined)
- T/C [1]: 109 % of control
- T/C [2]: 122 % of control
- T/C [3]: 122 % of control

Compound: CC1C[N-]CC(C)C1.CC1C[N-]CC(C)C1.[Cl][Pt+2]([Cl])([Cl])[Cl] (centres undefined)
- T/C (dose: 1.56 mg/kg/injection, schedule: Q01DX009 (ip), vehicle: saline): 95 % of control
- T/C (dose: 3.12 mg/kg/injection, schedule: Q01DX009 (ip), vehicle: saline): 114 % of control
- T/C (dose: 6.25 mg/kg/injection, schedule: Q01DX009 (ip), vehicle: saline): 93 % of control
- T/C [4]: 114 % of control
- T/C [5]: 107 % of control

Compound: COc1cc2cc(c1Cl)NC(=O)/C=C/C(C)=C/[C@H](C)[C@@H]1C[C@@](O)(NC(=O)O1)[C@H](OC)C=C/C=C(\C)C2
- T/C (dose: 1.6 micrograms/kg/injection, schedule: Q01DX009 (ip), vehicle: saline + alcohol): 104 % of control
- T/C (dose: 3.1 micrograms/kg/injection, schedule: Q01DX009 (ip), vehicle: saline + alcohol): 95 % of control
- T/C (dose: 6.2 micrograms/kg/injection, schedule: Q01DX009 (ip), vehicle: saline + alcohol): 87 % of control
- T/C (dose: 25.0 micrograms/kg/injection, schedule: Q01DX009 (ip), vehicle: saline + alcohol): 108 % of control
- T/C (dose: 50.0 micrograms/kg/injection, schedule: Q01DX009 (ip), vehicle: saline + alcohol): 120 % of control
- T/C (dose: 100.0 micrograms/kg/injection, schedule: Q01DX009 (ip), vehicle: saline + alcohol): 120 % of control
- T/C (dose: 200.0 micrograms/kg/injection, schedule: Q01DX009 (ip), vehicle: saline + alcohol): 104 % of control

Compound: CC1(C)NC(=O)N(CN2CCN(CN3C(=O)NC(C)(C)C3=O)CC2)C1=O
- T/C (dose: 100.0 mg/kg/injection, schedule: Q04DX003 (ip), vehicle: saline sonified): 107 % of control
- T/C (dose: 200.0 mg/kg/injection, schedule: Q04DX003 (ip), vehicle: saline sonified): 115 % of control
- T/C (dose: 400.0 mg/kg/injection, schedule: Q04DX003 (ip), vehicle: saline sonified): 115 % of control

Compound: O=C1NC(=O)C(c2ccccc2)(c2ccccc2)N1CCS
- T/C [4]: 96 % of control and 104 % of control
- T/C (dose: 25.0 mg/kg/injection, schedule: Q01DX009 (ip), vehicle: saline): 99 % of control and 104 % of control
- T/C [5]: 93 % of control
- T/C (dose: 100.0 mg/kg/injection, schedule: Q01DX009 (ip), vehicle: saline): 89 % of control and 99 % of control
- T/C (dose: 200.0 mg/kg/injection, schedule: Q01DX009 (ip), vehicle: saline): 112 % of control and 113 % of control

Compound: COc1c(CO)c2c(c(OC)c1OC)-c1ccc(OC)c(=O)cc1[C@@H](NC(C)=O)CC2
- T/C (dose: 25.0 mg/kg/injection, schedule: Q01DX009 (ip), vehicle: Klucel (hydroxypropylcellulose) (HPC)): 153 % of control
- T/C [6]: 168 % of control

Compound: Cc1[nH]c(=O)[nH]c(=O)c1I
- T/C [7]: 105 % of control
- T/C [8]: 99 % of control
- T/C [9]: 101 % of control

Compound: Clc1ccc(NC2=NCCN=C(Nc3ccc(Cl)c(Cl)c3)SS2)cc1Cl
- T/C [6]: 100 % of control
- T/C [10]: 92 % of control
- T/C [11]: 88 % of control

Compound: O=C(/C(=C/c1ccccc1)CN1CCOCC1)c1ccccc1
- T/C (dose: 25.0 mg/kg/injection, schedule: Q04DX003 (ip), vehicle: Klucel (hydroxypropylcellulose) (HPC)): 91 % of control
- T/C (dose: 50.0 mg/kg/injection, schedule: Q04DX003 (ip), vehicle: Klucel (hydroxypropylcellulose) (HPC)): 95 % of control
- T/C [12]: 91 % of control

Compound: CN1CCOC1=Nc1ccc(Cl)cc1
- T/C [1]: 104 % of control
- T/C [2]: 86 % of control and 100 % of control
- T/C [3]: 95 % of control
- T/C (dose: 400.0 mg/kg/injection, schedule: Q04DX003 (ip), vehicle: saline with Tween-80): 90 % of control

Compound: CCOC(=O)C(COS(=O)(=O)c1ccc(C)cc1)(COS(=O)(=O)c1ccc(C)cc1)C(=O)OCC
- T/C [10]: 108 % of control
- T/C [12]: 100 % of control
- T/C [11]: 104 % of control
- T/C [13]: 104 % of control
- T/C [14]: 100 % of control
- T/C [15]: 100 % of control

Compound: O=C(COc1ccccc1)NCCO
- T/C [10]: 100 % of control
- T/C [12]: 91 % of control
- T/C [11]: 100 % of control
- T/C [13]: 91 % of control
- T/C [14]: 100 % of control
- T/C [15]: 91 % of control

Compound: CC(=O)O[C@H]1[C@H]2O[C@]23[C@@H]2CC[C@@H]4C[C@@H](OC(=O)CCC(=O)O)CC[C@]4(C)[C@H]2CC[C@]3(C)[C@H]1c1ccc(=O)oc1
- T/C (dose: 0.13 mg/kg/injection, schedule: Q01DX009 (ip), vehicle: Klucel (hydroxypropylcellulose) (HPC)): 100 % of control
- T/C (dose: 0.25 mg/kg/injection, schedule: Q01DX009 (ip), vehicle: Klucel (hydroxypropylcellulose) (HPC)): 101 % of control
- T/C (dose: 0.5 mg/kg/injection, schedule: Q01DX009 (ip), vehicle: Klucel (hydroxypropylcellulose) (HPC)): 101 % of control

Compound: Cc1cc(C)cc(C(C)C)c1
- T/C [7]: 101 % of control
- T/C [8]: 116 % of control
- T/C [9]: 122 % of control
